Test results as given in paper PMC10458458, “Characterization of Anticancer Effects of the Analogs of DJ4, a Novel Selective Inhibitor of ROCK and MRCK Kinases” (Pharmaceuticals, 2023).

Columns and labels:
Assay in all cases: NCI-60 screen (SRB)
Format in all cases: cell-based, human
[1] = tested on: 786-0; conditions: 786-0 (Renal Cancer), 10 µM, 48 h; negative = cell death vs time zero
Description: (§1) The selected active compounds were screened at NCI, as a part of In Vitro Cell Line Screening Project (IVCLSP), for their effect on cell growth in 60 different cancer cell lines. The 60 human cancer cell line panel included leukemia, melanoma, non-small cell lung cancer, colon, central nervous system (CNS), ovarian, renal, prostate, and breast cancer cell lines. The detailed procedure and applications of NCI-60 cell line screening can be found at https://dtp.cancer.gov/discovery_development/nci-60/default.htm (accessed on 9 January 2023). Briefly, cells were plated in 96-well plates and incubated for 24 h. One set of cells was fixed with trichloroacetic acid at time 0 h (Tz), and SRB (sulphorhodamine B) assays were performed to quantify the cells. The remaining set of cells were treated with 10 µM single concentration of each compound and incubated for 48 h (Te) after which the cells were fixed, and the SRB assays were performed. Data are presented as percent growth relative to the control as 100% according to the following calculations:
(§2) When Te >/= Tz. Growth(%)=Te−Tz/C−Tz∗100 and when Te < Tz. (1) Growth(%)=Te−Tz/Tz∗100
(§3) Values between 0–100 indicate cell growth, zero (0) indicates no cell growth, values < 0 indicate cell death.

[2] = tested on: A498; conditions: A498 (Renal Cancer), 10 µM, 48 h; negative = cell death vs time zero
Description: as §1, §2, §3

[3] = tested on: A549/ATCC; conditions: A549/ATCC (Non-Small Cell Lung Cancer), 10 µM, 48 h; negative = cell death vs time zero
Description: as §1, §2, §3

[4] = tested on: BT-549; conditions: BT-549 (Breast Cancer), 10 µM, 48 h; negative = cell death vs time zero
Description: as §1, §2, §3

[5] = tested on: COLO 205; conditions: COLO 205 (Colon Cancer), 10 µM, 48 h; negative = cell death vs time zero
Description: as §1, §2, §3

[6] = tested on: DU-145; conditions: DU-145 (Prostate Cancer), 10 µM, 48 h; negative = cell death vs time zero
Description: as §1, §2, §3

[7] = tested on: HOP-92; conditions: HOP-92 (Non-Small Cell Lung Cancer), 10 µM, 48 h; negative = cell death vs time zero
Description: as §1, §2, §3

[8] = tested on: IGROV1; conditions: IGROV1 (Ovarian Cancer), 10 µM, 48 h; negative = cell death vs time zero
Description: as §1, §2, §3

[9] = tested on: LOX IMVI; conditions: LOX IMVI (Melanoma), 10 µM, 48 h; negative = cell death vs time zero
Description: as §1, §2, §3

[10] = tested on: MALME-3M; conditions: 10 µM, 48 h; for percent cell growth: MALME-3M (Melanoma), negative = cell death vs time zero
Description: as §1, §2, §3

[11] = tested on: MCF7; conditions: MCF7 (Breast Cancer), 10 µM, 48 h; negative = cell death vs time zero
Description: as §1, §2, §3

[12] = tested on: MDA-MB-231; conditions: MDA-MB-231 (Breast Cancer), 10 µM, 48 h; negative = cell death vs time zero
Description: as §1, §2, §3

[13] = tested on: MOLT-4; conditions: MOLT-4 (Leukemia), 10 µM, 48 h; negative = cell death vs time zero
Description: as §1, §2, §3

[14] = tested on: NCI-H23; conditions: NCI-H23 (Non-Small Cell Lung Cancer), 10 µM, 48 h; negative = cell death vs time zero
Description: as §1, §2, §3

[15] = tested on: NCI-H322M; conditions: NCI-H322M (Non-Small Cell Lung Cancer), 10 µM, 48 h; negative = cell death vs time zero
Description: as §1, §2, §3

[16] = tested on: OVCAR-3; conditions: OVCAR-3 (Ovarian Cancer), 10 µM, 48 h; negative = cell death vs time zero
Description: as §1, §2, §3

[17] = tested on: OVCAR-8; conditions: OVCAR-8 (Ovarian Cancer), 10 µM, 48 h; negative = cell death vs time zero
Description: as §1, §2, §3

[18] = tested on: RPMI-8226; conditions: 10 µM, 48 h; for percent cell growth: RPMI-8226 (Leukemia), negative = cell death vs time zero; for increase in cell number: RPMI-8226 (leukemia)
Description: as §1, §2, §3

[19] = tested on: RXF 393; conditions: RXF 393 (Renal Cancer), 10 µM, 48 h; negative = cell death vs time zero
Description: as §1, §2, §3

[20] = tested on: SK-MEL-28; conditions: SK-MEL-28 (Melanoma), 10 µM, 48 h; negative = cell death vs time zero
Description: as §1, §2, §3

[21] = tested on: SK-MEL-2; conditions: SK-MEL-2 (Melanoma), 10 µM, 48 h; negative = cell death vs time zero
Description: as §1, §2, §3

[22] = tested on: SK-MEL-5; conditions: SK-MEL-5 (Melanoma), 10 µM, 48 h; negative = cell death vs time zero
Description: as §1, §2, §3

[23] = tested on: SK-OV-3; conditions: SK-OV-3 (Ovarian Cancer), 10 µM, 48 h; negative = cell death vs time zero
Description: as §1, §2, §3

[24] = tested on: SW-620; conditions: SW-620 (Colon Cancer), 10 µM, 48 h; negative = cell death vs time zero
Description: as §1, §2, §3

[25] = tested on: U251; conditions: U251 (CNS Cancer), 10 µM, 48 h; negative = cell death vs time zero
Description: as §1, §2, §3

[26] = tested on: UACC-257; conditions: UACC-257 (Melanoma), 10 µM, 48 h; negative = cell death vs time zero
Description: as §1, §2, §3

[27] = tested on: UACC-62; conditions: UACC-62 (Melanoma), 10 µM, 48 h; negative = cell death vs time zero
Description: as §1, §2, §3

SMILES	percent cell growth [1] [%]	percent cell growth [2] [%]	percent cell growth [3] [%]	percent cell growth [4] [%]	percent cell growth [5] [%]	percent cell growth [6] [%]	percent cell growth [7] [%]	percent cell growth [8] [%]	percent cell growth [9] [%]	percent cell growth [10] [%]	percent cell growth [11] [%]	percent cell growth [12] [%]	percent cell growth [13] [%]	percent cell growth [14] [%]	percent cell growth [15] [%]	percent cell growth [16] [%]	percent cell growth [17] [%]	percent cell growth [18] [%]	percent cell growth [19] [%]	percent cell growth [20] [%]	other results
Cl.O=C1NC(=NCCc2ccccc2)SC1=Cc1c[nH]c2ncccc12 (mixture of isomers) [DJ4-HCl]	19.7	−21.3	8.1	5.3	−6.8	15.3	11.8	25.6	8.3	44.8	2.0	25.9	8.6	3.0	19.6	3.4	9.7	38.7	−30.1	0.8	percent cell growth [21]: −4.6%; percent cell growth [22]: −0.2%; percent cell growth [23]: 2.1%; percent cell growth [24]: 7.8%; percent cell growth [25]: 7.6%; percent cell growth [26]: −1.7%; percent cell growth [27]: −1.3%
O=C1N/C(=N\CCc2ccccc2)S/C1=C/c1c[nH]c2ncccc12 [DJ4]	9.0	−7.6	19.1	−7.9	4.8	20.7	−9.7	14.0	16.3	30.6	4.0	25.5	11.4	9.1	5.2	5.6	14.0	39.2	−20.2	16.0	percent cell growth [21]: 28.8%; percent cell growth [22]: 14.5%; percent cell growth [23]: 27.0%; percent cell growth [24]: 9.9%; percent cell growth [25]: 15.8%; percent cell growth [26]: 14.6%; percent cell growth [27]: −1.4%
C=CC/N=C1\NC(=O)/C(=C\c2c[nH]c3ncccc23)S1 [DJ-Allyl]	4.4	−34.5	13.2	−29.5	−20.1	12.7	−1.9	17.0	0.6	40.2	3.5	19.8	5.8	6.8	10.2	−7.0	10.7	42.7	−41.3	−2.4	increase in cell number ([10]; MALME-3M (melanoma)): ~ 40%; increase in cell number [18]: ~ 40%; percent cell growth [21]: −8.4%; percent cell growth [22]: 2.0%; percent cell growth [23]: −7.0%; percent cell growth [24]: 7.4%; percent cell growth [25]: 0.8%; percent cell growth [26]: 9.6%; percent cell growth [27]: 9.8%
CC/N=C1\NC(=O)/C(=C\c2c[nH]c3ncccc23)S1 [DJE4]	3.0	−54.2	11.1	−50.4	−33.3	9.9	4.4	21.7	1.8	−6.2	4.0	10.7	−6.0	−7.9	5.8	−2.1	6.3	29.1	−39.3	−17.2	increase in cell number [18]: 29%; percent cell growth [21]: −48.7%; percent cell growth [22]: 9.2%; percent cell growth [23]: −10.3%; percent cell growth [24]: 6.5%; percent cell growth [25]: −9.5%; percent cell growth [26]: −15.9%; percent cell growth [27]: −16.0%
